Patent US10512648B2, “Tyrosine kinase inhibitors for use in a method of treating cancer in association with a reduced caloric intake” (UNIVERSITÀ DEGLI STUDI DI GENOVA, priority 2014, dated 2019)

Assays:
A549 cells = experiment: viability of A549 cells, sulforodhamine B-based assay, with or without STS; format: cell-based
Protocol: With reference to FIG. 1D, 3×10^3 A549 cells were plated in 96 well plates and treated with Crizotinib in the presence or absence of STS, as in the experiments of FIGS. 1A and 1B, before viability was measured in sulforodhamine B-based assays.

H3122 xenografts = experiment: H3122 xenograft growth in mice; format: in vivo, BALB/c athymic mice (nu+/nu+)
Protocol: With reference to FIG. 2A, six- to eight-week-old BALB/c athymic mice (nu+/nu+) were injected s.c. with 5×10^6 H3122 cells. When tumors became palpable, mouse were randomly assigned to one of four arms (six mice per treatment arm): control—normal diet (—); Crizotinib—normal diet with 3 cycles of Crizotinib (25 mg/kg/day via oral gavage for 5 days a week, Mon-Fri); STS [fasting (water only) for 48 h (Sun-Tue) for three cycles at 1-week intervals]; STS+Crizotinib. Tumor size was measured daily and tumor volume was calculated using the formula: tumor volume=(w^2×W)×π/6, where “w” and “W” are “minor side” and “major side” (in mm), respectively. At the end of treatment, mice were euthanized and tumor masses were excised and weighted (see FIG. 2B). Mouse weight was also monitored daily.

[1] = tested on: H3122 cells engineered to overexpress HRAS or HRAS V12; experiment: sensitivity of H3122 cells engineered to overexpress HRAS or HRAS V12; format: cell-based; conditions: data not shown
H3122 cells [2] = experiment: H3122 cells in Petri dishes, sulforodhamine B staining after treatment and recovery; format: cell-based; conditions: H3122, STS conditions, 400 nM, 5 days then 2 days regular medium (FIG. 1C)
Protocol: With reference to FIG. 1C, 10^5 H3122 cells were plated in 60 mm Petri dishes in regular DMEM medium. 24 h later, the cell medium was removed and cells were incubated for 24 h either in regular medium (CTR) or in STS conditions. 24 h later 400 nM Crizotinib was added (or not) to the cells. 5 days later, the cell medium was removed and the cells were cultured for two additional days in regular DMEM medium. 48 h later, the plates were stained with sulforodhamine B and photographed.

[3] = tested on: phospho-ERK (Thr202/Tyr204); experiment: immunoblotting of phospho-ERK and total ERK in H3122 cell lysates; format: cell-based; conditions: H3122, 400 nM, 24 h; starved cells compared with cells in standard conditions
Protocol: With reference to FIG. 1E, 10^5 H3122 cells were plated in 6 well plates in regular DMEM medium containing 10% FBS. 24 h later, the cell medium was removed and cells were incubated for 24 h either in the same medium (CTR) or in low-glucose (0.5 g/L) DMEM containing 1% FBS (STS). 24 h later cells were treated or not with 400 nM Crizotinib. After 24 h, cell were used for cell lysate preparation and phospho-ERK (Thr202/Tyr204), and total ERK levels were detected by immunoblotting.

H3122 cells [4] = experiment: viability of H3122 cells, sulforodhamine B-based assay, regular medium (CTR) vs STS conditions; format: cell-based; conditions: H3122 NSCLC cells (EML4-ALK translocation); low glucose 0.5 g/L, 1% FBS (STS) vs regular medium; 72 h
Protocol: With reference to FIGS. 1A and 1B, 3×10^3 H3122 cells were plated in 96 well plates in regular DMEM medium containing 10% FBS. 24 h later, the cell medium was removed and cells were incubated for 24 h either in the same medium (CTR) or in low-glucose (0.5 g/L) DMEM medium containing 1% FBS (STS). 24 h later cells were treated or not with the indicated concentrations of Crizotinib or […] (TAE). 72 h later, viability was measured with sulforodhamine B-based assays.

MCF7 cells = experiment: viability of MCF7 cells, with or without STS conditions; format: cell-based
SKBR3 cells = experiment: viability of SKBR3 cells, sulforodhamine B-based assay, CTR vs STS; format: cell-based; conditions: SKBR3 HER2+ BC cells, 100 nM, 72 h
Protocol: With reference to FIGS. 3A and 3B, 3×10^3 SKBR3 (FIG. 3A) or BT474 (FIG. 3B) cells/well were plated in 96 well plates in regular DMEM medium containing 10% FBS and 2.5 g/L glucose. 24 h later, the cell medium was removed and cells were incubated for 24 h either in the same medium (CTR) or in low-glucose (0.5 g/L) DMEM medium containing 1% FBS (STS). 24 h later cells were treated or not with 100 nM Lapatinib. 72 h later, viability was measured in sulforodhamine B-based assays.
With reference to FIGS. 3D and 3E, BT474 or MCF7 cells were plated as detailed with regard to FIGS. 3A and 3B, treated with 100 nM CP724714 (FIG. 3D) or Lapatinib (FIG. 3E) with or without STS conditions as detailed with respect to FIGS. 3A and 3B before viability was detected.

BT474 cells = experiment: viability of BT474 cells, sulforodhamine B-based assay, CTR vs STS; format: cell-based; conditions: BT474 HER2+ BC cells, 100 nM, 72 h
AKT and ERK1/2 signaling [5] = experiment: immunoblotting of phospho-AKT, total AKT, phospho-ERK and total ERK in BT474 cell lysates; format: cell-based; conditions: BT474, 100 nM, 24 h; STS-mimicking conditions compared with Lapatinib alone (FIG. 4B)
Protocol: (§1) With reference to FIGS. 4A-C, 10^5 SKBR3 (FIG. 4A) or BT474 (FIG. 4B) cells were plated in 6 well plates in regular DMEM medium containing 10% FBS. 24 h later, the cell medium was removed and cells were incubated for 24 h either in the same medium (CTR) or in low-glucose (0.5 g/L) DMEM medium containing 1% FBS (STS). 24 h later cells were treated or not with 100 nM Lapatinib. After 24 h, cell were either used for cell lysate preparation or for flow cytometry assays. Cell lysates were used for phospho-AKT (Ser473), total AKT, phospho-ERK (Thr202/Tyr204), and total ERK level detection by immunoblotting (FIGS. 4A and 4B). Flow cytometry (with a FACS Calibur, BD) was used to estimate cell size (FSC) by acquiring 10,000 events per cell sample (FIG. 4C).

AKT and ERK1/2 signaling [6] = experiment: immunoblotting of phospho-AKT, total AKT, phospho-ERK and total ERK in SKBR3 cell lysates; format: cell-based; conditions: SKBR3, 100 nM, 24 h; STS-mimicking conditions compared with Lapatinib alone (FIG. 4A)
Protocol: as §1

Structure (SMILES)	sensitivity of A549 cells (viability) (A549 cells; A549 NSCLC cells without EML4-ALK translocation)	effect of STS on activity in A549 cells (A549 cells; A549 cells, STS vs regular medium)	activity on H3122 xenografts of the combination with fasting (H3122 xenografts; 25 mg/kg/day oral gavage plus 48 h fasting cycles, compared with each treatment alone, p<0.05)	growth of H3122 xenografts (H3122 xenografts; normal diet, 25 mg/kg/day oral gavage, 5 days a week, 3 cycles)	sensitivity of HRAS or HRAS V12 overexpressing H3122 cells [1]	killing of NSCLC cells (H3122 cells [2])	blocking of MAPK pathway signaling (ERK1/2 phosphorylation) [3]	effect of STS conditions on activity (viability of H3122 cells) (H3122 cells [4])	sensitivity of MCF7 cells (viability) (MCF7 cells; MCF7 cells without HER2 amplification, 100 nM)	effect of STS on activity in MCF7 cells (MCF7 cells; MCF7 cells, STS vs CTR)	sensitization by STS conditions (viability of SKBR3 cells) (SKBR3 cells)	sensitization by STS conditions (viability of BT474 cells) (BT474 cells)	inhibition of AKT and ERK1/2 signaling (AKT and ERK1/2 signaling [5])	inhibition of AKT and ERK1/2 signaling (AKT and ERK1/2 signaling [6])
C[C@@H](Oc1cc(-c2cnn(C3CCNCC3)c2)cnc1N)c1c(Cl)ccc(F)c1Cl [Crizotinib]	insensitive	did not increase the activity	more active than either type of treatment alone	effectively reduced the growth	resistant	virtual complete killing	more effective at blocking signaling through the MAPK pathway	strongly potentiated	–	–	–	–	–	–
CS(=O)(=O)CCNCc1ccc(-c2ccc3ncnc(Nc4ccc(OCc5cccc(F)c5)c(Cl)c4)c3c2)o1 [Lapatinib]	–	–	–	–	–	–	–	–	insensitive	failed to enhance the activity	strongly sensitized	strongly sensitized	more pronounced inhibition	more pronounced inhibition
COc1cc(N2CCC(N3CCN(C)CC3)CC2)ccc1Nc1ncc(Cl)c(Nc2ccccc2S(=O)(=O)C(C)C)n1 [TAE684]	–	–	–	–	–	–	–	strongly potentiated	–	–	–	–	–	–
